The text below walks through data of patent US9346762B2, “Pyrazole derivatives and their use as LPAR5 antagonists” (SANOFI, priority 2012, dated 2016).

The test system of this assay is human mast cell line HMC-1 (LPA receptor LPAR5). Put plainly: FLIPR assay, intracellular Ca2+ release in human mast cell line HMC-1. It is filed as cell-based. To be noted: HMC1, LPA-stimulated Ca2+ release, HMC-1 cells, compound added 10 minutes prior to LPA. An excerpt:
B) Use of the Fluorometric Imaging Plate Reader (FLIPR) Assay for the Determination of Intracellular Ca^2+ Release in Human Mast Cell Line HMC-1 and the Murine Microglia cell line BV-2
The ability of the compounds of the formula Ito inhibit or bind the LPA receptor LPAR5 can be assessed by determining the intracellular Ca^2+ release in human or animal cells. For the analysis of activating potential of LPA and the inhibitory effects of compounds of the formula I two cell lines were used with high LPAR5 expression, the human mast cell line HMC-1 and the murine microglia cell line BV-2 (FIGS. 1 and 2). For the FLIPR assay using human mast cells in a 96-well-format, HMC-1 suspension cells from flask culture were harvested, resuspended and counted. 14×10^6 HMC-1 cells were transferred into a new 50 ml tube, centrifuged for 3 minutes at 540×g. The resulting cell pellet at the bottom of the tube was resuspended with 15 ml loading buffer (loading buffer contained HBSS buffer (pH 7.4), 0.1% BSA (bovine serum albumin), 2 μM FLUO-4 dye; HBSS buffer (pH 7.4) contained 1×HBSS, 20 mM HEPES, 0.01% Pluronic F-127, 2.5 mM Probenicid).
Cells in loading buffer were incubated for 45-60 minutes at 37° C. After incubation cells were centrifuged for 3 minutes at 540×g and resuspended with 21 ml of HBSS buffer (pH 7.4). Each well of a poly-D-lysine coated 96-well-plate was filled with 150 μl cell solution, an equivalent of 100 000 cells/well. The 96-well-plate was centifuged for 2 minutes at 100×g (without brake) prior a recovery time of 30 minutes at 37° C. After this procedure cells were stimulated with LPA (in HBSS pH 7.4 and 0.1% BSA) to determine the EC50 of LPA in HMC-1 cells. For the determination of the inhibitory effect of compounds of the formula I, test compounds were added to the cells in the 96-well-plate 10 minutes prior the addition of LPA. Results of the assay are expressed as % activation, and are calculated using maximum peak of activation (Amax). The IC50 data of the above described FLIPR assay using human mast cell line HMC-1 for exemplary compounds of the present invention are shown in Table 2. Adherent BV-2 cells were seeded onto poly-D-lysine coated 96-well-plates (100000 cells/well) the day before performing the FLIPR assay. The density of the cells in the 96-well-plate at the day of the FLIPR assay should be 90%. After aspiration of the culture media, BV-2 cells were incubated for 30 minutes at 37° C. with loading buffer and recovered in 150 μl HBSS buffer for 30 minutes at 37° C. After this procedure cells were stimulated with LPA (in HBSS pH 7.4 and 0.1% BSA) to determine the EC50 of LPA in BV-2 cells. For the determination of the inhibitory effect of compounds of the formula I, test compounds were added to the cells in the 96-well-plate 10 minutes prior the addition of LPA. The IC50 data of the above described FLIPR assay using the murine microglia cell line BV-2 for exemplary compounds of the present invention are shown in Table 3.
As for `Cc1c(COC(C)C(=O)Nc2ccc(C(=O)O)cc2)nn(-c2ccc(Cl)cc2Cl)c1-c1ccc(C(F)(F)F)cc1` (stereo not shown) [Example 16, 4-{2-[1-(2,4-Dichloro-phenyl)-4-methyl-5-(4-trifluoromethyl-phenyl)-1H-pyrazol-3-ylmethoxy]-propionylamino}-benzoic acid], the IC50 was 4.1 µM.

As to `Cc1c(COC(C)C(=O)Nc2ccc(C(=O)O)cc2)nn(-c2ccc(Cl)cc2)c1-c1ccc(C(F)(F)F)cc1` (stereo not shown) [Example 18, 4-{2-[1-(4-Chloro-phenyl)-4-methyl-5-(4-trifluoromethyl-phenyl)-1H-pyrazol-3-ylmethoxy]-propionylamino}-benzoic acid], it took 3.8 µM to reach half-maximal inhibition (IC50).

As for `Cc1c(COC(C)(C)C(=O)NCc2ccc(C(=O)O)cc2)nn(-c2ccc(Cl)cc2)c1-c1ccc(C(F)(F)F)cc1` [Example 14, 4-({2-[1-(4-Chloro-phenyl)-4-methyl-5-(4-trifluoromethyl-phenyl)-1H-pyrazol-3-ylmethoxy]-2-methyl-propionylamino}-methyl)-benzoic acid], the concentration for half-maximal inhibition (IC50) came out at 3.4 µM.

As to `CC(OCc1cn(-c2ccccc2)nc1-c1ccccc1)C(=O)Nc1ccc(C(=O)O)cc1` (stereo not shown) [Example 22, 4-[2-(1,3-Diphenyl-1H-pyrazol-4-ylmethoxy)-propionylamino]-benzoic acid], the IC50 amounted to 16 µM.

Take `Cc1c(COC(C)(C)C(=O)O)nn(-c2ccc(Cl)cc2Cl)c1-c1ccc(Cl)cc1` [Example 1, 2-[5-(4-Chloro-phenyl)-1-(2,4-dichloro-phenyl)-4-methyl-1H-pyrazol-3-ylmethoxy]-2-methyl-propionic acid]: half-maximal inhibition (IC50) required 8.3 µM.

As for `Cc1c(COCC(=O)NCc2ccc(C(=O)O)cc2)nn(-c2ccc(Cl)cc2Cl)c1-c1ccc(Cl)cc1` [Example 11, 4-({2-[5-(4-Chloro-phenyl)-1-(2,4-dichloro-phenyl)-4-methyl-1H-pyrazol-3-ylmethoxy]-acetylamino}-methyl)-benzoic acid], the IC50 was 8.6 µM.

Compound `Cc1c(COC(C)C(=O)Nc2ccc(C(=O)O)cc2)nn(-c2ccccc2Cl)c1-c1ccc(C(F)(F)F)cc1` (stereo not shown) [Example 20, 4-{2-[1-(2-Chloro-phenyl)-4-methyl-5-(4-trifluoromethyl-phenyl)-1H-pyrazol-3-ylmethoxy]-propionylamino}-benzoic acid] had an IC50 of 5.2 µM.

Consider `Cc1c(COC(C)(C)C(=O)NCc2ccc(C(=O)O)cc2)nn(-c2ccccc2Cl)c1-c1ccc(C(F)(F)F)cc1` [Example 13, 4-({2-[1-(2-Chloro-phenyl)-4-methyl-5-(4-trifluoromethyl-phenyl)-1H-pyrazol-3-ylmethoxy]-2-methyl-propionylamino}-methyl)-benzoic acid], for which the IC50 turned out to be 1.3 µM.

`Cc1c(COC2(C(=O)O)CCCC2)nn(-c2ccc(Cl)cc2Cl)c1-c1ccc(Cl)cc1` [Example 3, 1-[5-(4-Chloro-phenyl)-1-(2,4-dichloro-phenyl)-4-methyl-1H-pyrazol-3-ylmethoxy]-cyclopentanecarboxylic acid] registered a half-maximal inhibitory concentration (IC50) of 8.8 µM. Against the preceding compound, the IC50 is about 6.8-fold higher.

The compound `Cc1c(COC(C)(C)C(=O)O)nn(-c2ccc(Cl)cc2Cl)c1-c1ccc(C(F)(F)F)cc1` [Example 4, 2-[1-(2,4-Dichloro-phenyl)-4-methyl-5-(4-trifluoromethyl-phenyl)-1H-pyrazol-3-ylmethoxy]-2-methyl-propionic acid] returned an IC50 of 6.6 µM.

In general, IC50 refers to the concentration that inhibits the measured activity by half. Higher therefore signals weaker potency.
